Article PMC9958325 (Nature Communications, 2023)
Values joined by “and” are separate entries in the source; they are usually repeats but may differ in a detail not shown here. Equal values may be shown once. Read-outs that look alike come from different tables or passages of the source.

How the values were obtained:
[1] = molecular target: T1, human calpain (Homo sapiens, UniProt P07384); test: Human calpain activity assay; type: biochemical; conditions: for %inhibition against humanCalpain: triplicate
T1 sequence (P07384 2-714): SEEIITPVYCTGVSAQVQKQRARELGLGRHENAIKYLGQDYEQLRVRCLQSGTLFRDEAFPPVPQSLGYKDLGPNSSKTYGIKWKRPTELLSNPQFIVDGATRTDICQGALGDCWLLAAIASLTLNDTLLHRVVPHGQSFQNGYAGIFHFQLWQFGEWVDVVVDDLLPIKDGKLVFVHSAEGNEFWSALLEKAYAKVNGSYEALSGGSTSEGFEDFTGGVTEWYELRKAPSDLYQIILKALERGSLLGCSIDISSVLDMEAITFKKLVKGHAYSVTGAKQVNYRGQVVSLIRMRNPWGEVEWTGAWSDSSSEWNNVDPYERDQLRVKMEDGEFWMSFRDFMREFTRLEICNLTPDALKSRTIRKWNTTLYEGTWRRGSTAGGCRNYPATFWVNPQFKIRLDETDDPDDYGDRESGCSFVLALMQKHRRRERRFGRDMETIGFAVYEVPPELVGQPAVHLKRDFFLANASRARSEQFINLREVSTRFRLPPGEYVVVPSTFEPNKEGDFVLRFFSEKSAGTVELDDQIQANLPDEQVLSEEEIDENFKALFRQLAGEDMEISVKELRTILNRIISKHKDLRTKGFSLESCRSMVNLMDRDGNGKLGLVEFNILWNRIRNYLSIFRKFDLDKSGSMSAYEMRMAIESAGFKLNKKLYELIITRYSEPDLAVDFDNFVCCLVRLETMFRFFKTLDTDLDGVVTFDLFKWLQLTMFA
T1 sequence (P04632 1-268 partner): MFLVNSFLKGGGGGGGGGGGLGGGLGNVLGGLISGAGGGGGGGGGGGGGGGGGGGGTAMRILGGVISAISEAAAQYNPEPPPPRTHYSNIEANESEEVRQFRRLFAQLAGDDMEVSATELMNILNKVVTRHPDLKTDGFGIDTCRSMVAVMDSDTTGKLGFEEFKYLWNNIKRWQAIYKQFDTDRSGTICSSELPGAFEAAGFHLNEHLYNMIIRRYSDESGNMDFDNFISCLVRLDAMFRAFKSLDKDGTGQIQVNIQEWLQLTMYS

[2] = test system: SARS-CoV-2^WK521 in A549-ACE2-TMPRSS2 cells; test: Antiviral assay, A549-ACE2-TMPRSS2 cells, WK521; type: cell-based
[3] = test system: SARS-CoV-2^WK521 in HeLa-ACE2-TMPRSS2 cells; test: Antiviral assay, HeLa-ACE2-TMPRSS2 cells, WK521; type: cell-based
[4] = Pharmacokinetic study in PXB-mice (human liver-chimeric); conditions: for Vdss / AUC: mean ± S.E.; for AUC: n=3; for Plasma concentration: individual mice

CC(C)(C)[C@H](NC(=O)C(F)(F)F)C(=O)N1C[C@H]2[C@@H]([C@H]1C(=O)N[C@@H](C[C@@H]1CCNC1=O)C(=O)c1nc3c(F)cccc3s1)C2(C)C [TKB245]
Effect on human calpain (in words) [1]: neither of human cysteine enzymes, cathepsin L and calpain, were significantly affected | %inhibition against humanCalpain ([1]; 0.000128 µM): 0% | %inhibition against humanCalpain ([1]; 0.00064 µM): 0% | %inhibition against humanCalpain ([1]; 0.0032 µM): 0% | %inhibition against humanCalpain ([1]; 0.08 µM): 0% | %inhibition against humanCalpain ([1]; 0.4 µM): 0% | %inhibition against humanCalpain ([1]; 2 µM): 9.6344% and 1.813% | IC50 ([1]; 60 minute incubation, mean ± 1 S.D., n=3, read-out: IC50, human calpains): > 2000 nM | EC50 ([2]; SARS-CoV-2^WK521, read-out: EC50, A549-ACE2-TMPRSS2): 2.7 ± 0.2 nM | EC50 ([2]; source data, listed as TKB0245, read-out: EC50, A549-AEC2-TMPRSS2, individual assays): 3 nM and 2.47 nM and 2.78 nM | EC50 ([2]; source data, read-out: EC50, A549-AEC2-TMPRSS2, Average): 2.75 nM | EC50 ([3]; SARS-CoV-2^WK521, read-out: EC50, HeLa-ACE2-TMPRSS2): 21 ± 8 nM | EC50 ([3]; source data, listed as TKB0245, read-out: EC50, HeLa-AEC2-TMPRSS2, individual assays): 14 nM and 30 nM and 20 nM | EC50 ([3]; source data, read-out: EC50, HeLa-AEC2-TMPRSS2, Average): 21.3 nM | Cmax ([4]; N = 3 male PXB-mouse, 10 mg/kg p.o.): 1,901¶ ng/mL | T1/2 ([4]; N = 3 male PXB-mouse, 10 mg/kg, oral (p.o.) value for TKB245): 3.82¶ h | t1/2 ([4]; PXB-mice, 10 mg/kg i.v.): 1.25 h | Vdss ([4]; PXB-mice, 10 mg/kg i.v.): 30.2 ± 3.81 mL/kg | AUC ([4]; PXB-mice, 10 mg/kg i.v.): 10.7 ± 0.54 µg·h/mL | Vdss ([4]; PXB-mice, 10 mg/kg p.o.): 194.1 ± 35.43 mL/kg | AUC ([4]; PXB-mice, 10 mg/kg p.o.): 5.12 ± 0.43 µg·h/mL | Plasma concentration ([4]; PXB-mice, i.v. 10 mg/kg, 10 min): 8436.5 ng/mL | Plasma concentration ([4]; PXB-mice, i.v. 10 mg/kg, 10 min, listed as TKB0245, 10 mg/kg): 8433.5 ng/mL and 10627.1 ng/mL | Plasma concentration ([4]; PXB-mice, i.v. 10 mg/kg, 0.17 hr, listed as TKB0245, 10 mg/kg): 8440 ng/mL and 8430 ng/mL and 10630 ng/mL | Plasma concentration ([4]; PXB-mice, i.v. 10 mg/kg, 60 min, listed as TKB0245, 10 mg/kg): 2816 ng/mL and 2507.3 ng/mL and 3230 ng/mL | Plasma concentration ([4]; PXB-mice, i.v. 10 mg/kg, 1 hr, listed as TKB0245, 10 mg/kg): 2820 ng/mL and 2510 ng/mL and 3230 ng/mL | Plasma concentration ([4]; PXB-mice, i.v. 10 mg/kg, 240 min, listed as TKB0245, 10 mg/kg): 47 ng/mL and 52.3 ng/mL and 95 ng/mL | Plasma concentration ([4]; PXB-mice, i.v. 10 mg/kg, 4 hr, listed as TKB0245, 10 mg/kg): 0.05 µg/ml (2×) and 0.09 µg/ml | Plasma concentration ([4]; PXB-mice, i.v. 10 mg/kg, 480 min, listed as TKB0245, 10 mg/kg): 10.4 ng/mL and 14.8 ng/mL and 20 ng/mL | Plasma concentration ([4]; PXB-mice, i.v. 10 mg/kg, 8 hr, listed as TKB0245, 10 mg/kg): 0.01 µg/ml (2×) and 0.02 µg/ml | Plasma concentration ([4]; PXB-mice, i.v. 10 mg/kg, 1440 min, listed as TKB0245, 10 mg/kg): 13.6 ng/mL and 11.6 ng/mL and 12.4 ng/mL | Plasma concentration ([4]; PXB-mice, i.v. 10 mg/kg, 24 hr): 10 ng/mL | Plasma concentration ([4]; PXB-mice, p.o. 10 mg/kg, 10 min, listed as TKB0245, 10 mg/kg): 914.5 ng/mL and 1553.1 ng/mL and 2872.3 ng/mL | Plasma concentration ([4]; PXB-mice, p.o. 10 mg/kg, 0.17 hr, listed as TKB0245, 10 mg/kg): 910 ng/mL and 1550 ng/mL and 2870 ng/mL | Plasma concentration ([4]; PXB-mice, p.o. 10 mg/kg, 60 min, listed as TKB0245, 10 mg/kg): 1278.1 ng/mL and 1343.7 ng/mL and 1794.3 ng/mL | Plasma concentration ([4]; PXB-mice, p.o. 10 mg/kg, 1 hr, listed as TKB0245, 10 mg/kg): 1280 ng/mL and 1340 ng/mL and 1790 ng/mL | Plasma concentration ([4]; PXB-mice, p.o. 10 mg/kg, 240 min, listed as TKB0245, 10 mg/kg): 152.9 ng/mL and 98.8 ng/mL and 128.8 ng/mL | Plasma concentration ([4]; PXB-mice, p.o. 10 mg/kg, 4 hr, listed as TKB0245, 10 mg/kg): 150 ng/mL and 100 ng/mL and 130 ng/mL | Plasma concentration ([4]; PXB-mice, p.o. 10 mg/kg, 480 min, listed as TKB0245, 10 mg/kg): 41.6 ng/mL and 34.4 ng/mL and 32.8 ng/mL
